Experimental data from patent publication US20250051324A1, “PARP INHIBITOR, PHARMACEUTICAL COMPOSITION COMPRISING SAME, AND USE THEREOF” (KEYTHERA (SUZHOU) BIO-PHARMACEUTICALS CO., LIMITED, priority 2021, published 2025).
Read-outs that look alike come from different tables or passages of the source.

Experiments:
PARP1 [1] = target: T1, PARP1 (Homo sapiens (Human), UniProt P09874); test: PARP1 trapping assay; type: biochemical; conditions: read-out: Inhibitory Effect on PARP1 Trapping IC50
Protocol: [table] […] 1. A 4× enzyme reaction mixture, comprising PARP1, PARP2, and GST-Tb antibody, was prepared with the buffer and 4 μL of the enzyme reaction mixture was added to a 384-well plate. 2. A 4×PARP1 and PARP2 probe reaction mixture was prepared with the buffer and 4 μL of the probe reaction mixture was added to the 384-well plate. 3. A series of gradient-diluted compounds were prepared and 4 μL of the diluted compounds were added to the 384-well plate, and incubated at room temperature for 45 minutes. 4. After incubation, 4 μL of 4×NAD reaction mixture was added to the 384-well plate and incubated at room temperature for 10 minutes. 5. After incubation, the plate was read using a plate reader. 6. Data Analysis: The percentage inhibition rate was calculated as follows: Inhibition Rate (%)=(Reading of Compound Group−Reading of Blank Group)/(Reading of Vehicle Control Group−Reading of Blank Group).

[2] = tested on: MDA-MB-436 breast cancer cells; test: Cell proliferation assay, MDA-MB-436; type: cell-based; conditions: Homo sapiens, MDA-MB-436, 168 h, read-out: MDA-MB-436 Cell IC50
Protocol: (§1) Experimental Materials: MDA-MB-436 or UWB1.289 cell lines were purchased from Cobioer Biosciences Co. Ltd. (Nanjing, China). The STR identification results were a complete match, and mycoplasma testing was negative. MDA-MB-436 cells were cultured in DMEM complete medium containing 10% fetal bovine serum, 1% penicillin-streptomycin, 1% insulin, and 16 μg/mL glutathione; UWB1.289 cells were cultured in RMPI1640 complete medium containing 10% fetal bovine serum and 1% penicillin-streptomycin.
(§2) 1. MDA-MB-436 or UWB1.289 cells were cultured in the aforementioned medium (culture conditions: 37° C., 5.0% CO2 in air) until they reached the logarithmic growth phase. The cells were then digested with trypsin containing 0.25% EDTA, centrifuged at 1000 rpm, and the supernatant was discarded. Cell culture medium was added, and the cell suspension was adjusted to 2×10^4/mL after counting. 135 μL of the cell suspension per well was taken and cultured in a 96-well cell culture plate for 16 hours (culture conditions: 37° C., 5.0% CO2 in air).
(§3) 2. The test compounds, stored at a concentration of 10 mM, were diluted 2.5 times with DMSO and then serially diluted in a 1:3 gradient (9 gradients). The gradient-diluted samples were further diluted 40 times with serum-free medium, and 15 μL of each was added to the 96-well cell culture plate. The positive control group received serum-free medium containing the same concentration of DMSO, and the negative control group received medium without cells. The cells were then cultured for an additional 7 days.
(§4) 3. After the culture period, the cell culture plate was placed at room temperature for 30 minutes. Then, 100 μL of CellCounting-Lite 2.0 reagent (Vazyme, #DD1101) was added to each well, mixed thoroughly, and incubated in the dark at room temperature for 10 minutes. The luminescence signal was read using a Synergy HTX multi-mode reader.
(§5) 4. Data analysis was performed using GraphPad Prism 8.0 software. The inhibition rate (%) was calculated as 100*(average luminescence signal of the positive control group−luminescence signal of the compound)/(average luminescence signal of the positive control group−average luminescence signal of the negative control group). The IC50 value was obtained by plotting the logarithm of the compound concentration against the percentage inhibition rate.

[3] = Liver microsome metabolism assay; conditions: CD1, mouse, liver microsomes
Protocol: Experimental Materials: Mixed CD1 mouse liver microsomal enzyme protein was purchased from Xenotech (#M1000), and NADPH was purchased from Abmole (#M9076).
1. To the liver microsomal enzyme reaction system, 210 μL of phosphate buffer was added, followed by 12.5 μL of liver microsomal enzyme at a concentration of 20 mg/mL. Then, 25 μL of NADPH at a concentration of 10 mM was added to the system, mixed well, and incubated in a 37° C. water bath with shaking for 10 minutes.
2. The test compound, stored at a concentration of 10 mM, was diluted to 100 μM with DMSO. Then, 2.5 μL of the diluted test compound was added to the reaction system, mixed well, and incubated in a 37° C. water bath with shaking.
3. At 0.5, 5, 10, 20, 30, and 60 minutes, 25 μL of the enzyme reaction mixture was taken and added to 125 μL of cold acetonitrile containing dexamethasone as an internal standard. The mixture was centrifuged at 4000 g for 20 minutes, and the supernatant was mixed with an equal volume of distilled water. The mixed sample was then subjected to quantitative analysis by liquid chromatography-mass spectrometry.
4. Calculation of in vitro drug metabolism half-life and drug clearance rate:
t1/2=−0.693/k. (k: the slope of the linear regression of the natural logarithm of the percentage of drug remaining versus incubation time).

[4] = tested on: UWB1.289 ovarian cancer cells; test: Cell proliferation assay, UWB1.289; type: cell-based; conditions: UWB1289, 168 h, read-out: UWB1.289 Cell IC50
Protocol: as §1, §2, §3, §4, §5

PARP1 [5] = target: T1, PARP1; test: PARP enzyme activity assay (PARP1 chemiluminescent assay kit); type: biochemical; conditions: enzyme inhibitory activity, read-out: PARP-1 IC50
Source text: Experimental Materials: The PARP1 assay kit was purchased from BPS Bioscience, USA, specifically the 384-well chemiluminescent assay kit (Catalog No.: #80551).
Experimental Principle: PARP can catalyze the transfer of ADP-ribose residues from NAD+ to target substrates, thereby modifying proteins through ribosylation. This experiment measures PARP1 enzyme activity by detecting the poly(ADP-ribosylation) of histones by PARP1.
Preparation of Reagents and Test Compounds: The 10× assay buffer included in the kit was diluted to 1× with distilled water. The test compound (stock concentration of 10 mM) was diluted to 10 μM with a DMSO solution and then serially diluted in a 1:3 ratio. The serially diluted compounds were further diluted 10-fold with the 1× assay buffer.
Experimental Method: The procedure was carried out according to the kit's instructions:
1. The 5× histone mixture was diluted to 1× with PBS, and 25 μL was added to each well of a 384-well plate, incubating overnight at 4° C.
2. After incubation, 100 μL of PBST (0.05% Tween 20) was added to each well for washing, repeated three times. Then, 100 μL of blocking solution was added to each well and incubated at room temperature for 90 minutes.
3. After incubation, the wells were washed three times with PBST, and then 1.25 μL of 10× assay buffer, 1.25 μL of 10×PARP assay mixture, 2.5 μL of activation DNA (5×), and 7.5 μL of distilled water were added to each well.
4. […] The positive control group and the negative control group were added with 1× assay buffer containing the same concentration of DMSO.
5. Next, 10 μL of 2.5 ng/μL PARP1 enzyme was added to the test compound and positive control groups, while 10 μL of 1× assay buffer was added to the negative control group, and the mixture was incubated at room temperature for 60 minutes.
6. Streptavidin-HRP was diluted 1:50 with the blocking solution. After incubation, the plate was washed three times with PBST, and 25 μL of the diluted streptavidin-HRP solution was added to each well, incubating at room temperature for 30 minutes.
7. After incubation, the plate was washed three times with PBST, and 50 μL of the mixed substrate A and substrate B in equal volumes was added. The luminescence signal was immediately read on a Synergy HTX multi-mode reader.
as §5, with “8.” for “4.”, “%=100*(average” for “(%) was calculated as 100*(average”

[6] = Evaluation of pharmacokinetics in mice; conditions: male, ICR (CD1), mouse, plasma, po, 10 mg/kg
Protocol: Test Objective: The pharmacokinetics of the example compounds of the present application were tested in mice. By measuring the drug concentration in mouse plasma, the pharmacokinetic behavior of the compounds of the present invention was studied to evaluate their pharmacokinetic characteristics.
Test Animals: 6-8 Week Old Male ICR (CD1) Mice
Oral Gavage Drug Preparation: An appropriate amount of the test compound was first weighed and dissolved in DMSO (Macklin cas: 67-68-5) to prepare a 20 mg/mL solution. Then, 75 μL of this solution was added to 150 μL of Solutol (Sigma cas: 70142-34-6), followed by 1.275 mL of 20% Captisol (Selleck cas: 182410-00-0), resulting in a final drug concentration of 1 mg/mL.
Intravenous Injection Drug Preparation: An appropriate amount of the test compound was first weighed and dissolved in DMSO (Macklin cas: 67-68-5) to prepare a 30 mg/mL solution. Then, 15 μL of this solution was added to 150 μL of Solutol (Sigma cas: 70142-34-6), followed by 1.335 mL of 20% Captisol (Selleck cas: 182410-00-0), resulting in a final drug concentration of 0.3 mg/mL.
Procedures: The mice were fasted overnight with free access to water before the experiment. Food was restored two hours after dosing. Blood samples were collected at different time points after intravenous injection or oral gavage of the test compound in mice, and the compound concentration in plasma was measured. Approximately 50 μL of blood was collected from each animal using a capillary sampling tube via the orbital venous plexus, with heparin sodium as an anticoagulant. Blood samples were placed on ice, centrifuged at 3500 r/min for 10 minutes to separate the plasma, and 20 μL of the collected plasma was added to 200 μL of acetonitrile (Merck cas: 75-05-8) containing 200 nM dexamethasone (Selleck cas: 50-02-2) as an internal standard. The mixture was centrifuged at 8000 r/min for 20 minutes. After centrifugation, 150 μL of the supernatant was transferred to a new centrifuge tube, and 150 μL of 0.1% formic acid (Fisher cas: 207868) was added. The mixture was mixed well, and 5 μL of the sample was subjected to quantitative analysis by liquid chromatography-mass spectrometry (Q-TOF LC/MS).
The test compound was serially diluted with DMSO to cover the compound concentrations expected in plasma samples to be tested, with a blank sample (containing only DMSO) included.
2 μL of each diluted sample at various concentrations was added to 18 μL of normal ICR mouse plasma, mixed, and then added to 200 μL of acetonitrile (Merck cas: 75-05-8) containing 200 nM dexamethasone (Selleck cas: 50-02-2) as an internal standard. The mixture was centrifuged for 20 minutes (8000 r/min). 150 μL of the supernatant was transferred to a new centrifuge tube, and 150 μL of 0.1% formic acid (Fisher cas: 207868) was added. The mixture was mixed well, and 5 μL of the sample was subjected to quantitative analysis by liquid chromatography-mass spectrometry (Q-TOF LC/MS).
The final standard curve was plotted using the concentration of the test compound after dilution on the abscissa and the ratio of the signal of the compound to the internal standard (dexamethasone) on the ordinate. The standard curve was generated using linear regression with GraphPad Prism 8 software (R2>0.9900).
Data Analysis: calculation of pharmacokinetic parameters: the concentration of the test compound in plasma at different time points after intravenous injection or oral gavage in ICR mice was determined based on the above standard curve, and pharmacokinetic parameters (T1/2, Cmax, AUC, etc.) were calculated using the Phoenix WinNonlin 8.1 non-compartmental analysis model.

T1 sequence (P09874 whole entry): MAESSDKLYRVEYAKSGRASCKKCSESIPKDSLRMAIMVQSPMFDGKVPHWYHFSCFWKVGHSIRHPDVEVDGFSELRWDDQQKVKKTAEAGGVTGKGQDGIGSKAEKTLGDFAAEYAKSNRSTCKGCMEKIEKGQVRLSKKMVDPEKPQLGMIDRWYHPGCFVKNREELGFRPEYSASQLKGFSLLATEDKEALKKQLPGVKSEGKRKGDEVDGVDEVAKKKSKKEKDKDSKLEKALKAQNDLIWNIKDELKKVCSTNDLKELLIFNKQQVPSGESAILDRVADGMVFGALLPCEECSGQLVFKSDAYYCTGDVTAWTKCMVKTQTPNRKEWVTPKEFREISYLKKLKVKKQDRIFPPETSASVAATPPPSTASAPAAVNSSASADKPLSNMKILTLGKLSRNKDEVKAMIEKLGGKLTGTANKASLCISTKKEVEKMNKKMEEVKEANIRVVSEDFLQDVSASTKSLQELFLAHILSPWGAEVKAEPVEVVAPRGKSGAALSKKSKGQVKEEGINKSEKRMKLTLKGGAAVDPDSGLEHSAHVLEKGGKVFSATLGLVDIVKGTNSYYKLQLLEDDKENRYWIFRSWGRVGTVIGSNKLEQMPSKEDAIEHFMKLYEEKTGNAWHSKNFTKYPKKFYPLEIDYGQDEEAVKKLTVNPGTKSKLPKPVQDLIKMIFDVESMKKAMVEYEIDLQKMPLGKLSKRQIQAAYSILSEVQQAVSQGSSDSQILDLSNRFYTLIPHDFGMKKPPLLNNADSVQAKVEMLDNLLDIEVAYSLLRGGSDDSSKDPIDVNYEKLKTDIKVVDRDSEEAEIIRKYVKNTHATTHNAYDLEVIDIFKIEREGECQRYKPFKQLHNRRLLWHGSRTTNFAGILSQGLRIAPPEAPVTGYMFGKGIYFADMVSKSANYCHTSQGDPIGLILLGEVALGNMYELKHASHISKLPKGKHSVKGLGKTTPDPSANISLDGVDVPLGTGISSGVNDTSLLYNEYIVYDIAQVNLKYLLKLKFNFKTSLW

Cc1c(C(F)(F)F)c(=O)[nH]c2cc(CN3CCN(c4ccc(C(=O)NC5CC5)nc4)CC3)cnc12 [Compound 99, N-cyclopropyl-5-(4-((8-methyl-6-oxo-7-(trifluoromethyl)-5,6-dihydro-1,5-naphthyridin-3-yl)methyl)piperazin-1-yl)picolinamide]
IC50 (PARP1 [1]): 1.53 nM
IC50 ([2]; proliferation, 7 days): 1.69 nM

CNC(=O)c1ccc(N2CCN(Cc3cnc4c(C)c(C#N)c(=O)[nH]c4c3)CC2)cn1 [Compound 85, 5-(4-((7-cyano-8-methyl-6-oxo-5,6-dihydro-1,5-naphthyridin-3-yl)methyl)piperazin-1-yl)-N-methylpicolinamide]
IC50 ([2]; proliferation, 7 days): 16.4 nM
microsomal CLint at 1 µM [3]: 0.86 µL/min/mg

CNC(=O)c1ccc(N2CCN(Cc3cnc4c(C)c(C(F)(F)F)c(=O)[nH]c4c3)C[C@@H]2C)cn1 [Compound 53, (S)—N-methyl-5-(2-methyl-4-((8-methyl-6-oxo-7-(trifluoromethyl)-5,6-dihydro-1,5-naphthyridin-3-yl)methyl)piperazin-1-yl)picolinamide]
IC50 ([4]; proliferation, 7 days): 13.6 nM

CNC(=O)c1ccc(N2CCN(Cc3cnc4c(C)c(C(F)(F)F)c(=O)[nH]c4c3)CC2C)cn1 (stereo not shown) [Compound 10, N-methyl-5-(2-methyl-4-((8-methyl-6-oxo-7-(trifluoromethyl)-5,6-dihydro-1,5-naphthyridin-3-yl)methyl)piperazin-1-yl)picolinamide]
IC50 (PARP1 [5]): 2.79 nM
IC50 ([4]; proliferation, 7 days): 15 nM

CNC(=O)c1ccc(N2CCN(Cc3cnc4c(C)c(C(F)(F)F)c(=O)[nH]c4c3)CC2C#N)cn1 (stereo not shown) [Compound 72, 5-(2-cyano-4-((8-methyl-6-oxo-7-(trifluoromethyl)-5,6-dihydro-1,5-naphthyridin-3-yl)methyl)piperazin-1-yl)-N-methylpicolinamide]
IC50 ([2]; proliferation, 7 days): 8.18 nM
microsomal CLint at 1 µM [3]: 0.6 µL/min/mg

CNC(=O)c1ccc(N2CCN(Cc3cnc4c(C)c(C(F)F)c(=O)[nH]c4c3)CC2)cn1 [Compound 100, 5-(4-((7-(difluoromethyl)-8-methyl-6-oxo-5,6-dihydro-1,5-naphthyridin-3-yl)methyl)piperazin-1-yl)-N-methylpicolinamide]
IC50 (PARP1 [1]): 2.58 nM
IC50 [2]: 2.05 nM

CNC(=O)c1ccc(N2CCN(Cc3cnc4c(C)c(C(F)(F)F)c(=O)[nH]c4c3)C(CO)C2)cn1 (stereo not shown) [Compound 6, 5-(3-(hydroxymethyl)-4-((8-methyl-6-oxo-7-(trifluoromethyl)-5,6-dihydro-1,5-naphthyridin-3-yl)methyl)piperazin-1-yl)-N-methylpicolinamide]
IC50 (PARP1 [5]): 34.3 nM

Cc1c(C(F)(F)F)c(=O)[nH]c2cc(CN3CCN(c4ccc(C#N)cn4)CC3)cnc12 [Compound 20, 6-(4-((8-methyl-6-oxo-7-(trifluoromethyl)-5,6-dihydro-1,5-naphthyridin-3-yl)methyl)piperazin-1-yl)nicotinonitrile]
IC50 (PARP1 [5]): 1.26 nM
IC50 ([4]; proliferation, 7 days): 26.6 nM

CNC(=O)c1ccc(N2CCN(Cc3cnc4c(C)c(C(F)(F)F)c(=O)[nH]c4c3)C(CCO)C2)cn1 (stereo not shown) [Compound 5, 5-(3-(2-hydroxyethyl)-4-((8-methyl-6-oxo-7-(trifluoromethyl)-5,6-dihydro-1,5-naphthyridin-3-yl)methyl)piperazin-1-yl)-N-methylpicolinamide]
IC50 (PARP1 [5]): 27.2 nM

CNS(=O)(=O)c1ccc(N2CCN(Cc3cnc4c(C)c(C(F)(F)F)c(=O)[nH]c4c3)CC2)cc1 [Compound 13, N-methyl-4-(4-((8-methyl-6-oxo-7-(trifluoromethyl)-5,6-dihydro-1,5-naphthyridin-3-yl)methyl)piperazin-1-yl)benzenesulfonamide]
IC50 (PARP1 [5]): 7.37 nM

CNC(=O)c1ccc(N2CCN(Cc3cnc4c(C)c(C(F)(F)F)c(=O)[nH]c4c3)C(COC)C2)cn1 (stereo not shown) [Compound 8, 5-(3-(methoxymethyl)-4-((8-methyl-6-oxo-7-(trifluoromethyl)-5,6-dihydro-1,5-naphthyridin-3-yl)methyl)piperazin-1-yl)-N-methylpicolinamide]
IC50 (PARP1 [5]): 2.55 nM
IC50 ([4]; proliferation, 7 days): 12.6 nM

CNC(=O)c1ccc(C2CCN(Cc3cnc4c(C)c(C(F)(F)F)c(=O)[nH]c4c3)CC2)cn1 [Compound 71, N-methyl-5-(1-((8-methyl-6-oxo-7-(trifluoromethyl)-5,6-dihydro-1,5-naphthyridin-3-yl)methyl)piperidin-4-yl)picolinamide]
IC50 ([4]; proliferation, 7 days): 8.13 nM

CNC(=O)c1ccc(N2CCN(Cc3cnc4c(C)c(C(F)(F)F)c(=O)[nH]c4c3)CC2)c(F)n1 [Compound 93, 6-fluoro-N-methyl-5-(4-((8-methyl-6-oxo-7-(trifluoromethyl)-5,6-dihydro-1,5-naphthyridin-3-yl)methyl)piperazin-1-yl)picolinamide]
IC50 (PARP1 [1]): 1.32 nM
IC50 [4]: 2.67 nM
IC50 [2]: 0.83 nM
AUC(0-inf) [6]: 796 µg·h/mL
Cmax [6]: 31900 ng/mL
half-life [6]: 18.4 h

CNC(=O)c1ccc(N2CCN(Cc3cnc4c(C)c(C(F)(F)F)c(=O)[nH]c4c3)C(C)C2)cn1 (stereo not shown) [Compound 11, N-methyl-5-(3-methyl-4-((8-methyl-6-oxo-7-(trifluoromethyl)-5,6-dihydro-1,5-naphthyridin-3-yl)methyl)piperazin-1-yl)picolinamide]
IC50 (PARP1 [5]): 0.96 nM
IC50 ([4]; proliferation, 7 days): 28.5 nM
AUC(0-inf) [6]: 1500 µg·h/mL
Cmax [6]: 55900 ng/mL
half-life [6]: 18.9 h

Cc1c(C(F)(F)F)c(=O)[nH]c2cc(CN3CCN(c4cc5c(cn4)C(=O)N(C)C5)CC3)cnc12 [Compound 84, 4-methyl-7-((4-(2-methyl-3-oxo-2,3-dihydro-1H-pyrrolo[3,4-c]pyridin-6-yl)piperazin-1-yl)methyl)-3-(trifluoromethyl)-1,5-naphthyridin-2(1H)-one]
microsomal CLint at 1 µM [3]: 0.72 µL/min/mg
